Assay results reported in patent publication US20240165052A1 (priority 2021, published 2024).

Key:
[1] = at 20° C.; cited from earlier work
[2] = test system: porcine mucosa (mucosa oesophagus); assay: in vitro permeation of (S)-ketamine, Franz diffusion cell; details: 37° C.
[3] = pH of phosphate buffer (donor medium) with (S)-ketamine HCl or OTF; assay type: physicochemical

For `NC(CO)(CO)CO` [TRIS, tris(hydroxymethyl)aminomethane], the pKs [1] is listed as 8.2.
For `CNC1(c2ccccc2Cl)CCCCC1=O` (racemic) [(S)-ketamine, (S)-(±)-2-(2-chlorophenyl)-2-(methylamino)cyclohexan-1-one], the “permeation rate of S-ketamine” value ([2]; 2.77 mg (S)-ketamine HCl on mucosa, acidic buffer as donor, FIG. 1) was “lowest permeation rate”, the “permeation of S-ketamine” value ([2]; 2.77 mg (S)-ketamine HCl on mucosa, neutral buffer as donor, FIG. 1) was “best” and the “permeation rate of S-ketamine” value ([2]; 0.287 cm^2 OTF formulation 1 + 70 μL acidic buffer, FIG. 2) was “lowest permeation rate”. For the same compound, the “permeation of S-ketamine” value ([2]; 0.287 cm^2 OTF formulation 1 + 70 μL alkaline buffer, FIG. 2) was “best”.
With `CN[C@]1(c2ccccc2Cl)CCCCC1=O.Cl` [(S)-ketamine HCl] the “Buffer + (S)-ketamine HCl pH at 22° C.” value ([3]; acidic buffer (pH 4.99 at 22° C.)) was 4.92, the “Buffer + (S)-ketamine HCl pH at 22° C.” value ([3]; alkaline buffer (pH 8.33 at 22° C.)) was 7.81 and the “Buffer + (S)-ketamine HCl pH at 22° C.” value ([3]; neutral buffer (pH 7.46 at 22° C.)) was 6.64.
